From patent US10124017B2, “Use of Ginsenoside M1 for preventing or treating gout” (priority 2015, dated 2018)

What was measured:
[1] = tested on: mouse J774A.1 macrophages; test: MSU-induced IL-1β production in LPS-primed J774A.1 macrophages (ELISA); assay type: cell-based; conditions: 1 μg/ml LPS 30 min, then 100 μg/ml MSU 24 h; FIG. 1; p<0.001 compared to MSU alone
Method: (§1) The mouse macrophages cell line J774A.1 and human monocytic leukemia cell line THP-1 was obtained from the American Type Culture Collection (Rockville, Md.) and cultured in RPMI 1640 medium supplemented with 10% heat-inactivated fetal bovine serum (FBS) and 2 mM L-glutamine (all from Life Technologies, Carlsbad, Calif.) at 37° C. in a 5% CO2 incubator. To induce monocyte-to-macrophage differentiation, THP-1 cells were cultured for 48 h in RPMI-1640 medium supplemented with 100 nM phorbol 12-myristate 13-acetate (Sigma-Aldrich).
(§2) In FIGS. 1 and 2, J774A.1 macrophages (1×10^5 cells/500 μl medium/well) were incubated for 30 min with or without Ginsenoside M1, then for 30 min with or without 1 μg/ml LPS (from Escherichia coli 0111:B4, purchased from Sigma, St. Louis, Mo.) in the continued presence or absence of Ginsenoside M1, and then for 24 h with or without 100 μg/ml MSU or 100 μg/ml CPPD (all purchased from InvivoGen, San Diego, Calif.). The levels of IL-1β in the culture medium were measured by ELISA.
(§3) For ELISA assay, 50 μl of biotinylated antibody reagent and 50 μl of culture medium were added to an anti-mouse IL-1β or IL-6 precoated stripwell plate, and incubated at room temperature for 2 h. […] Following the addition of 100 μl of provided stop solution to each well to stop the reaction, the absorbance of the plate was measured by a microplate reader at a 450 nm wavelength. […]

[2] = tested on: mouse J774A.1 macrophages; test: CPPD-induced IL-1β production in LPS-primed J774A.1 macrophages (ELISA); assay type: cell-based; conditions: 1 μg/ml LPS 30 min, then 100 μg/ml CPPD 24 h; FIG. 2; p<0.001 compared to CPPD alone
Method: as §1, §2, §3

human THP-1 macrophages = test: MSU-induced IL-1β, TNF-α and IL-6 production in LPS-primed THP-1 macrophages (ELISA); assay type: cell-based; conditions: 1 μg/ml LPS 6 h, then 100 μg/ml MSU 24 h
Method: as §1
(§4) In FIG. 4-6, THP-1 macrophages (1×10^5 cells/500 μl medium/well) were incubated for 6 h with or without 1 μg/ml LPS, then for 30 min with or without Ginsenoside M1, in the continued presence or absence of LPS, and then for 24 h with or without 100 μg/ml MSU. The levels of IL-1β in the culture medium were measured by ELISA.
(§5) For ELISA assay, 50 μl of biotinylated antibody reagent and 50 μl of culture medium were added to an anti-mouse IL-1β or IL-6 precoated stripwell plate, and incubated at room temperature for 2 h. After washing the plate three times with washing buffer, 100 μl of diluted streptavidin-HRP (horseradish peroxidase) concentrate was added to each well and incubated at room temperature for 30 min. The washing process was repeated; then 100 μl of a premixed tetramethylbenzidine substrate solution was added to each well and developed at room temperature in the dark for 30 min. Following the addition of 100 μl of provided stop solution to each well to stop the reaction, the absorbance of the plate was measured by a microplate reader at a 450 nm wavelength.
as §4, with “To confirm the anti-inflammatory activities of Ginsenoside M1, human” for “In FIG. 4-6,”, “macrophages” for “macrophages (1×10^5 cells/500 μl medium/well)”

C57BL/6 mice = test: MSU-induced peritonitis in vivo (acute gout inflammation); parameters: species or system mouse; conditions: 60 mg/kg oral by gavage day 0, 1, 2, 3 mg MSU i.p., p<0.001 compared to MSU-injection group
Method: In FIG. 7-9, the animal experiments were conducted in accordance with the guidelines of the National Institutes of Health and approved by the Institutional Animal Care and Use Committee of National Ilan University. Male C57BL/6 mice were purchased from the National Laboratory Animal Center (Taipei, Taiwan). The animals were provided a chow diet and water ad libitum under conditions of 22-24° C., 40-70% relative humidity, and a 12 h light-dark cycle. Ginsenoside M1 (60 mg/kg body weight) was oral administered daily by gavage at day 0, 1 and 2. Acute gout inflammation was induced by intraperitoneal injection each mice with 3 mg of MSU in 0.5 mL of phosphate-buffered saline (PBS) at day 0 and day 2 1 h after Ginsenoside M1 administration. Control mice received 0.5 mL PBS without MSU (n=6). After 4 h, all mice were sacrificed using neck breaking, and the mice were intraperitoneally injected with 5 mL of PBS. The peritoneal fluid was then collected, and the volume of peritoneal fluid was about 4 mL from each mouse. The collected peritoneal exudate cells were washed and resuspended in PBS. The cells were stained with fluorescent antibodies against the neutrophils specific surface markers Ly-6G and CD45 (eBioscience, San Diego, Calif., USA) for 20 min at 37° C. in the dark, and the cell populations were sorted using a FACScan flow cytometer (Becton-Dickinson, San Jose, Calif.). The levels of IL-1β and IL-6 in the peritoneal fluid were measured by ELISA.
as §5, with “The washing process was repeated; then 100 μl of a premixed tetramethylbenzidine substrate solution was added to each well and developed at room temperature in the dark for 30 min.” left out

[3] = tested on: LPS-activated J774A.1 macrophages; test: LPS-induced NLRP3 and proIL-1β expression in J774A.1 macrophages (Western blot); assay type: cell-based, mouse; conditions: 1 μg/ml LPS 6 h, FIG. 3
Method: as §1
In FIG. 3, J774A.1 macrophages (2×10^6 cells/2 ml medium/dish) were incubated for 30 min with or without Ginsenoside M1, then for 6 h with or without 1 μg/ml LPS (from Escherichia coli 0111:B4, purchased from Sigma, St. Louis, Mo.) in the continued presence or absence of Ginsenoside M1. The levels of NLRP3 and proIL-1β in the cell lysates were measured by Western blot. […]
J774A.1 macrophages were incubated for 30 min with or without Ginsenoside M1, then for 6 h with or without 1 μg/ml LPS in the continued presence or absence of Ginsenoside M1. The levels of NLRP3 and proIL-1β in the cell lysates were measured by Western blot.

## CC(C)=CCC[C@](C)(O[C@@H]1OC(CO)[C@@H](O)[C@@H](O)C1O)[C@H]1CC[C@]2(C)C1[C@H](O)CC1[C@@]3(C)CC[C@H](O)C(C)(C)C3CC[C@]12C (stereo partly drawn) [Ginsenoside M1, 20-O-β-D-glucopyranosyl-20(S)-protopanaxadiol]
[1]
  IL-1β secretion in the culture medium: reduced
[2]
  IL-1β secretion in the culture medium: reduced
Human THP-1 macrophages; FIG. 4, p<0.05 and p<0.001 compared to MSU alone
  IL-1β production in the culture medium: reduced
Human THP-1 macrophages; FIG. 5, p<0.05 and p<0.001 compared to MSU alone
  TNF-α production in the culture medium: reduced
Human THP-1 macrophages; FIG. 6, p<0.001 compared to MSU alone
  IL-6 production in the culture medium: reduced
C57BL/6 mice; FIG. 7
  MSU-induced IL-1β production in the murine peritoneal fluid: significantly reduced
C57BL/6 mice; FIG. 8
  MSU-induced IL-6 production in the murine peritoneal fluid: significantly reduced
C57BL/6 mice; flow cytometry, FIG. 9
  levels of MSU-induced Ly-6G+ neutrophils in the peritoneal fluid: significantly reduces
[3]
  level of NLRP3 in the cell lysates: reduced
  level of proIL-1β in the cell lysates: reduced
